Data: patent US20180064729A1, “Treatment of Pulmonary Disease” (Intercept Pharmaceuticals, Inc., priority 2012, published 2018)
Entries after “also recorded” stand apart in the source; their conditions may differ.

Experiments:
Sprague-Dawley (SD) rats [1] = assay: MCT-induced pulmonary hypertensive rat model: survival (Kaplan-Meier); format: in vivo; conditions: MCT-treated rats, study period 28 days
Experimental: (§1) Pulmonary hypertension was induced by subcutaneous injection of 60 mg/kg monocrotaline (MCT) (Sigma Chemicals, St. Louis, Mo., USA) dissolved in 0.5 N HCl solution. Briefly, male Sprague-Dawley (SD) rats, weighing between 200 to 250 g, were housed in climate-controlled conditions with a 12 hours light:12 hours dark cycle, with free access to chow and water. […]
During the study period, the animals were observed daily for mortality, and median survival time in each group was calculated with Kaplan-Meier analysis.

[2] = test system: DSS (Dahl salt-sensitive) rat; assay: Dahl salt-sensitive (DSS) rat high salt diet study; format: in vivo
Text: The rodent model for salt-sensitive hypertension was a DSS (Dahl salt-sensitive) rat (e.g., Rapp). […] Specifically, the rodent models used for the study were male 4-week old DSS rats (e.g., SS/JrHsd) from Harlan Laboratories. The normal diet of the DSS rats was 0.49% NaCl and the high salt diet was 8% NaCl (e.g., Teklad Custom Research Diet). The rats were divided into four groups (herein referred to as DSS study rats): • Group 1; Normal salt diet (1% Methylcellulose) (N=6) • Group 2; High-salt diet (Vehicle; 1% MC) (N=9) • Group 3; High-salt diet (6ECDCA 10mg/kg/day) (N=6) • Group 4; High-salt diet (6ECDCA 30mg/kg/day) (N=9)
The following analyses were carried out: ADMA and NO levels in serum and urine and tissues (e.g., liver, muscle and kidney), blood pressure and heart rate, fasting blood glucose and insulin (HOMA-IR), ipGTT (IR-index), and urinary protein and creatinine. Additional studies such as electrolytes (Na+), histological analysis and TGFbeta expression in kidney, DDAH expression and activity in liver, skeletal muscle and kidney, and Akt-phosphorylation level in liver, skeletal muscle and kidney can also be carried out.
6ECDCA was administered orally daily for 6-weeks. Blood and urine collections were performed at week 0 and week 6 and analyzed by methods known in the art. Blood pressure measurement was performed at week 0, 1, 2, 4 and 6 by tail cuff devices, which was performed on conscious models and was non-invasive. The blood pressure was also obtained via catheter, which was performed when the model was sacrificed. The glucose challenge test was performed at week 5. Renal function was analyzed by measuring the urinary volume, protein and creatinine in a 24 h-urine sample. Histological analysis was performed using the Masson&Trichrome staining. Insulin resistance was analyzed using the ipGTT test and the HOMA/IR index. The ADMA and NO levels were detected in blood concentration and urinary excretion (FIG. 1).

small pulmonary arteries = assay: MCT-induced pulmonary hypertensive rat model: pulmonary artery wall thickness; format: in vivo; conditions: for MCT-induced increase in wall thickness (WT): OCA 30 mg/kg oral, p<0.00001; for wall thickness (WT) in small pulmonary arteries: MCT 60 mg/kg s.c. alone
Experimental: (§2) Pulmonary hypertension was induced by subcutaneous injection of 60 mg/kg monocrotaline (MCT) (Sigma Chemicals, St. Louis, Mo., USA) dissolved in 0.5 N HCl solution. Briefly, male Sprague-Dawley (SD) rats, weighing between 200 to 250 g, were housed in climate-controlled conditions with a 12 hours light:12 hours dark cycle, with free access to chow and water. SD rats were randomly allocated to the following groups: • 1) SD rats left untreated and sacrificed after 7 (n=5) or 28 (n=5) days; • 2) SD rats receiving a single subcutaneous injection of vehicle MCT sacrificed after 7 days (n=5); • 3) SD rats receiving a single subcutaneous injection of vehicle MCT sacrificed after 28 days (n=10); • 4) SD rats receiving a single subcutaneous injection of MCT [60 mg/kg, n=5] sacrificed after 7 days; • 5) SD rats receiving single subcutaneous injection of MCT [60 mg/kg, n=15] sacrificed after 28 days; • 6) SD rats receiving single subcutaneous injection of MCT [60 mg/kg] and immediately treated with OCA (30 mg/kg, daily 5 days a week, by oral gavage, n=5) for 7 days]; • 7) SD rats receiving single subcutaneous injection of MCT [60 mg/kg] and immediately treated with OCA (30 mg/kg, daily 5 days a week, by oral gavage, n=10) for 28 days]; • 8) SD rats receiving single subcutaneous injection of MCT [60 mg/kg] and immediately treated with tadalafil (10 mg/kg/day, in drinking water, n=5) for 7 days]; • 9) SD rats receiving single subcutaneous injection of MCT [60 mg/kg] and immediately treated with tadalafil (10 mg/kg/day, in drinking water, n=10) for 28 days]; • 10) SD rats receiving single subcutaneous injection of MCT [60 mg/kg] and immediately treated with vehicle OCA (by oral gavage, n=5) for 7 days; • 11) SD rats receiving single subcutaneous injection of MCT [60 mg/kg] and immediately treated with vehicle OCA (by oral gavage, n=10) for 28 days.
Pulmonary vascular remodeling was evaluated by determining wall thickness (WT). Lungs were fixed in 10% buffered formalin and embedded in paraffin, then sectioned at a thickness of 5 μm and stained with hematoxylin-eosin. Ten pulmonary arteries were examined for structural integrity using a morphometric image analysis system independently by two pathologists who were blinded to animal grouping. WT, vessel diameter (ED), were determined. WT(%)=(2×WT/ED)×100%. More than 50 images of pulmonary arterioles (25 to 100 μm diameters) from at least three tissue sections at a magnification of ×20 were captured using amicroscopic digital camera and analyzed using an image analysisprogram (Fiji-win32). The external diameter (D) and medial thickness oneither side (M1 and M2) were measured along the shortest diameter. The medial wall thickness was expressed as follows: % wall thickness=[(M1+M2)/2/D]×100.

[3] = test system: lung mRNA of inflammation, endothelium-proliferative and NO-signaling genes; assay: MCT-induced pulmonary hypertensive rat model: lung mRNA expression by qRT-PCR; format: in vivo
Experimental: as §2
mRNA expression analysis of genes involved in inflammation [interleukin 6 (IL-6), monocyte chemoattractant protein-1 (MCP-1/CCL2), cyclooxygenase-2], endothelium-proliferative factors (vascular endothelial growth factor (VEGF) and angiotensin-converting enzyme 2 (ACE2)), NO-signaling [endothelial nitric oxide synthase (eNOS), phosphodiesterase type 5 (PDES), cyclic guanylate cyclase subunits type 1a3 and 1b3, GC1a3, GC1b3, protein kinase G 1, PKG1], were performed. Isolation of RNA from lung, qRT-PCR was performed according to the fluorescent TaqMan methodology. PCR primers and probes specific for mRNA sequences of aforementioned target genes and of the reference gene 18S rRNA was purchased from Life Technologies (Paisley, UK).

Sprague-Dawley (SD) rats [4] = assay: MCT-induced pulmonary hypertensive rat model: right ventricular hypertrophy index; format: in vivo; conditions: day 28; MCT 60 mg/kg s.c.; OCA 30 mg/kg oral gavage, tadalafil 10 mg/kg/day in drinking water
Experimental: as §1

[5] = test system: C57B1/6 wild-type and FXR−/− mice; assay: murine bleomycin-induced pulmonary fibrosis model; format: in vivo; conditions: bleomycin day 0; 5 mg/kg daily; 22 days
Experimental: The murine model of bleomycin-induced pulmunary fibrosis was induced in C57B1/6 wild-type and FXR^−/− mice (females, 6-8 weeks old). Groups of treatment included: • WT mice: A—saline (day 0); B—bleomycin (day 0); C—bleomycin (day 0)- • Compound 1 (also referred to as 6ECDCA) (5 mg/kg, daily) • FXR^−/− mice: D—saline (day 0); E—bleomycin (day 0); F—bleomycin (day 0) • Compound 1 (also referred to as 6ECDCA) (5 mg/kg, daily).
After 22 days, the mice were sacrified and the subsequent analyses were performed: (1) H&E and […] staining on lung sections; (2) Quantification of collagen I into the lung by qRT-PCR and Sircol collagen assay; (3) FXR, SHP and CXCL12 mRNA quantification by qRT-PCR; and (4) CXCL12 protein quantification by ELISA on lung homogenates.

[6] = test system: murine lung fibroblast cell line (ATCC number CCL-206); assay: Col I and CXCL12 expression in stimulated lung fibroblasts (qRT-PCR, ELISA, Sircol); format: cell-based; conditions: 24 hours
Experimental: FXR activation reduced the production of collagen I and […] by resident fibroblasts. Specifically, after a 24 hour period of starving, cells from the murine lung fibroblast cell line (ATCC number CCL-206) were stimulated with or without TGFβ1 (10 ng/ml) and 6ECDCA (10 μM) for 24 hours and then the FXR, SHP and Col I gene expression was analyzed by qRT-PCR. After a 24 hours period of starving, cells from the murine lung fibroblast cell line (ATCC number CCL-206) were stimulated with or without TNFα (10 ng/ml) and 6ECDCA (10 μM) for 24 hours and then the FXR, SHP and CXCL12 gene expression was analyzed by qRT-PCR.
The downregulation of Col I and CXCL12 induced by 6ECDCA was FXR-mediated. After an overnight period of starving, murine lung fibroblast cell line (ATCC number CCL-206) was stimulated with or without TGFβ1 (10 ng/ml) and 6ECDCA (1 μM) for 24 hours—with and without block of the FXR by siRNA—and then the FXR, SHP, Col I and CXCL12 gene expression was analyzed by qRT-PCR. CXCL12 and Col I secretion in the supernatants was analyzed by ELISA and the Sircol collagen assay, respectively.
The downreguation of Col I and CXCL12 induced by 6ECDCA was SHP-mediated. Specifically, transfection of pulmonary fibroblasts with vector carrying the HA-SHP chimera was carried out to induce a SHP overexpression (WB analysis of the HA-SHP expression). Col I and CXCL12 expression (by qRT-PCR) was analyzed at baseline and after stimulation with TGFβ1. SHP overexpression was sufficient to down-regulate the Col I and CXCL12 expression, basically and after stimulation with TGFβ1.
After an overnight period of starving, murine lung fibroblast cell line (ATCC number CCL-206) were stimulated with/without TGFβ1 (10 ng/ml) and 6ECDCA (1 μM) for 24 hours—with and without block of the SHP by siRNA—and then the FXR, SHP, Col I and CXCL12 gene expression was analyzed by qRT-PCR. CXCL12 and Col I secretion in the supernatants was analyzed by ELISA and the Sircol collagen assay, respectively.

Compound: CC[C@H]1[C@@H](O)[C@@H]2[C@H](CC[C@]3(C)[C@@H]([C@H](C)CCC(=O)O)CC[C@@H]23)[C@@]2(C)CC[C@@H](O)C[C@@H]12 [Compound 1, 3α,7α-dihydroxy-6α-ethyl-5β-cholanic acid]
- mortality rate (Sprague-Dawley (SD) rats [1]): 13.2%
- ADMA levels in serum and urine [2]: did not reduce ADMA
- albuminuria induced by high salt diet [2]: reduced albuminuria
- IR-index reduction compared to the vehicle ([2]; 10 mg/kg): 38%
- body weight ([2]; 10 mg/kg and 30 mg/kg, seven week study): did not affect the body weight
- IR-index reduction compared to the vehicle ([2]; 30 mg/kg): 21%
- lung weight (pulmonary congestion) ([2]; 30 mg/kg): reduced lung weight
- renal protection ([2]; 30 mg/kg): showed renal protection
- heart rate ([2]; 10 and 30 mg/kg/day oral): did not affect heart rate
- blood pressure ([2]; 10 and 30 mg/kg/day oral, listed as 6ECDCA): did not affect heart rate blood pressure or reduce blood pressure; also recorded: did not reduce blood pressure
- glucose levels ([2]; GTT): trended lower
- insulin levels ([2]; GTT): trended lower
- insulin sensitivity (Insulin Resistance-Index) ([2]; GTT at week 5): reversed insulin resistance
- MCT-induced increase in wall thickness (WT) (small pulmonary arteries; day 7): markedly reduced
- MCT-induced increase in wall thickness (WT) (small pulmonary arteries; day 28): markedly reduced
- PKG1 mRNA expression ([3]; 28-day treatment, p=0.01 vs. MCT): significantly upregulates
- GC1a3 mRNA expression ([3]; after 7 days of OCA dosing): significant increase
- PDES mRNA expression ([3]; after 7 days of OCA dosing): significant increase
- PKG1 mRNA expression ([3]; after 7 days of OCA dosing): significant increase
- MCT-induced MCP-1 expression ([3]; day 7, lung): significantly reduced
- IL-6 mRNA expression ([3]; day 28, lung): significantly reduced
- MCT-induced MCP-1 expression ([3]; day 28, lung): significantly reduced
- VEGF mRNA expression ([3]; day 28, p=0.001 vs. MCT): significantly upregulate
- ACE2 mRNA expression ([3]; day 28, p=0.038 vs. MCT): significantly upregulate
- right ventricular hypertrophy index (RVH), RV/(LV+S) (Sprague-Dawley (SD) rats [4]): completely normalized RVH
- pulmonary fibrosis [5]: ameliorates the pulmonary fibrosis
- downregulation of Col I and CXCL12, dependence on SHP ([6]; TGFβ1 10 ng/ml, 6ECDCA 1 μM, SHP overexpression / block of SHP by siRNA): SHP-mediated
- downregulation of Col I and CXCL12, dependence on FXR ([6]; TGFβ1 10 ng/ml, 6ECDCA 1 μM, with and without block of FXR by siRNA): FXR-mediated
- production of collagen I by resident fibroblasts (Col I gene expression) ([6]; TGFβ1 10 ng/ml, 6ECDCA 10 μM): reduced
- production of CXCR12 by resident fibroblasts (CXCL12 gene expression) ([6]; TNFα 10 ng/ml, 6ECDCA 10 μM): reduced

Compound: C[C@H]1C(=O)O[C@@H]2CCN3CC=C(COC(=O)[C@](C)(O)[C@]1(C)O)[C@H]23 [MCT, monocrotaline, reference compound]
- mortality rate (Sprague-Dawley (SD) rats [1]): 24%
- wall thickness (WT) in small pulmonary arteries (small pulmonary arteries; day 7, control 19±0.7): 33±0.8%
- wall thickness (WT) in small pulmonary arteries (small pulmonary arteries; day 28, control 16.8±0.8%): 32.6±0.7%
